Results: PMC8842224 (Journal of Medicinal Chemistry, 2022)
Like-named read-outs stand apart in the source and are kept apart here.

Legend:
human A1AR = biological target: T1, human A1AR (Homo sapiens, UniProt P30542); settings: for Exp absolute binding affinity (ΔGbind): experimental, A1AR
T1 sequence (P30542 1-326): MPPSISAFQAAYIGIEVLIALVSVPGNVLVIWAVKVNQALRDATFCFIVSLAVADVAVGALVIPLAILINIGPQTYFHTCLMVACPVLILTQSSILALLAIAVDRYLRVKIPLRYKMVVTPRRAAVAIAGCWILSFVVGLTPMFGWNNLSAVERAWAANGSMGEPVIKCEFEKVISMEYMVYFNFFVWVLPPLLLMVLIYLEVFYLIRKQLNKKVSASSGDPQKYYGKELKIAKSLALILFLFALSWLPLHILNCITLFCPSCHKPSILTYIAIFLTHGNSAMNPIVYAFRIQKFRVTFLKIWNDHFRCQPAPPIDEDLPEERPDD

human A2AAR = human A2AAR (Homo sapiens, UniProt P29274)
human A2BAR = biological target: T2, human A2BAR (Homo sapiens, UniProt P29275); settings: read-out: hA2B Ki; displacement of specific [3H]DPCPX binding, human HEK-293 cells, ± SEM, n = 3
T2 sequence (P29275 1-332): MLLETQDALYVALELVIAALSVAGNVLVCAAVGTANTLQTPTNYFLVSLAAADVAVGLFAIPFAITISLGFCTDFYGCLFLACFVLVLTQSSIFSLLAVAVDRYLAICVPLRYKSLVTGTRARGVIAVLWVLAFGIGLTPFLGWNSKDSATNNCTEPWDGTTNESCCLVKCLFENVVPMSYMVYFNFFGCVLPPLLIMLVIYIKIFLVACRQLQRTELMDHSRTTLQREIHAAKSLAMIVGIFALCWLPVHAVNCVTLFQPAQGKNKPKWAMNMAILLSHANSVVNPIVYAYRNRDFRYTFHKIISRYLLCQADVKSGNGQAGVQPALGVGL

[1] = read-out: hA1 Ki, displacement of specific [3H]DPCPX binding, human CHO cells, ± SEM, n = 3
[2] = read-out: hA2A Ki, displacement of specific [3H]ZM241385 binding, human HeLa cells, ± SEM, n = 3
[3] = read-out: ki_a1, supplementary csv, unit inferred
[4] = read-out: ki_a2a, supplementary csv, unit inferred

Sequence of human A2AAR (P29274 whole entry): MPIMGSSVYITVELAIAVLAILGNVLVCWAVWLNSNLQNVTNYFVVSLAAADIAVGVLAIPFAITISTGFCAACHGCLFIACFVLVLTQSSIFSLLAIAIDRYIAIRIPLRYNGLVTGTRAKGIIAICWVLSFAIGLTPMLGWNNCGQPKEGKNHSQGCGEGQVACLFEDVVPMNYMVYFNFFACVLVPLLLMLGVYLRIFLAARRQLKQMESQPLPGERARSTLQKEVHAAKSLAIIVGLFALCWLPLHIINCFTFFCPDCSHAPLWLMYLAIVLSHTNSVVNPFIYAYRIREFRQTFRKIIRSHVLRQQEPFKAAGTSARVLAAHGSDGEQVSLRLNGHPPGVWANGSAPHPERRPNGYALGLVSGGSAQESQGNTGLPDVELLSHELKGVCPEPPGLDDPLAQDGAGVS

Compound	Ki (human A1AR; [1]) [µM]	Ki (human A2AAR; [2]) [µM]	Ki (human A2BAR) [µM]	further results
COc1ccc(-c2nc(N)nc(-c3ccccc3)c2C#N)cc1 [18l]	0.00716 ± 0.00203	0.046 ± 0.0032	–	–
N#Cc1c(-c2ccccc2)nc(Nc2ccccc2)nc1-c1ccoc1 [19ay]	–	0.368	–	–
CCNc1nc(-c2ccccc2)c(C#N)c(-c2cc(Cl)cc(Cl)c2)n1 [19ak]	0.135 ± 0.02	–	–	Ki (human A1AR; [3]): 0.136 µM
N#Cc1c(-c2ccccc2)nc(Nc2ccccc2)nc1-c1ccccc1F [19e]	0.00625 ± 0.00102	0.0525 ± 0.0062	0.107 ± 0.01	–
CCNc1nc(-c2ccccc2)c(C#N)c(-c2ccc3c(c2)OCO3)n1 [19ap]	0.0067 ± 0.00067	0.894 ± 0.042	0.217 ± 0.018	Ki (human A2AAR; [4]): 0.895 µM
COc1cc(OC)cc(-c2nc(Nc3ccccc3)nc(-c3ccccc3)c2C#N)c1 [19an]	–	0.0173 ± 0.0019	0.064 ± 0.0096	–
CNc1nc(-c2ccccc2)c(C#N)c(-c2ccc(C)cc2)n1 [19ad]	0.028 ± 0.0093	–	0.474 ± 0.032	Exp absolute binding affinity (ΔGbind) (human A1AR): -10.30 kcal/mol
CNc1nc(-c2ccccc2)c(C#N)c(-c2ccccc2)n1 [19a]	0.00914 ± 0.00221	0.711 ± 0.043	–	Exp relative binding affinity (ΔΔGbind) (human A1AR; Lig 2 relative to Lig 1 = 19ad): -0.66 kcal/mol; Exp absolute binding affinity (ΔGbind) (human A1AR): -10.96 kcal/mol
CCNc1nc(-c2ccccc2)c(C#N)c(-c2cccc(C#N)c2)n1 [19t]	0.00246 ± 0.00018	0.155 ± 0.021	0.0142 ± 0.0038	–
N#Cc1c(-c2ccccc2)nc(Nc2ccccc2)nc1-c1cccc(Cl)c1 [19n]	–	0.0463 ± 0.0025	–	–
CNc1nc(-c2ccccc2)c(C#N)c(-c2ccccc2F)n1 [19d]	0.0295 ± 0.0023	–	0.0478 ± 0.0038	Exp relative binding affinity (ΔΔGbind) (human A1AR; Lig 2 relative to Lig 1 = 19a): 0.69 kcal/mol; Exp absolute binding affinity (ΔGbind) (human A1AR): -10.27 kcal/mol
N#Cc1c(-c2ccccc2)nc(Nc2ccccc2)nc1-c1ccc2c(c1)OCO2 [19aq]	0.0114 ± 0.0037	0.028 ± 0.0096	0.188 ± 0.023	–
N#Cc1c(-c2ccccc2)nc(N)nc1-c1ccc(-c2ccccc2)cc1 [18ag]	6.5 ± 0.451	–	–	–
N#Cc1c(-c2ccccc2)nc(Nc2ccccc2)nc1-c1ccc(F)cc1 [19w]	0.0363 ± 0.0041	–	0.0517 ± 0.0031	–
N#Cc1c(-c2ccccc2)nc(N)nc1-c1cccs1 [18y]	0.0173 ± 0.0044	0.0249 ± 0.0046	0.0406 ± 0.0037	–
CNc1nc(-c2ccccc2)c(C#N)c(-c2ccc(OC)cc2)n1 [19ab]	0.0575 ± 0.0027	–	–	Exp absolute binding affinity (ΔGbind) (human A1AR): -9.87 kcal/mol
CNc1nc(-c2ccccc2)c(C#N)c(-c2ccco2)n1 [19at]	0.00666 ± 0.0024	0.401 ± 0.025	–	Exp relative binding affinity (ΔΔGbind) (human A1AR; Lig 2 relative to Lig 1 = 19a): -0.19 kcal/mol; Exp relative binding affinity (ΔΔGbind) (human A1AR; Lig 2 relative to Lig 1 = 19ax): -4.33 kcal/mol; Exp absolute binding affinity (ΔGbind) (human A1AR): -11.15 kcal/mol; Ki (human A2AAR; [4]): 0.402 µM
COc1ccc(-c2nc(Nc3ccccc3)nc(-c3ccccc3)c2C#N)cc1 [19ac]	–	0.0514 ± 0.0037	0.186 ± 0.015	–
CNc1nc(-c2ccccc2)c(C#N)c(-c2cc(OC)cc(OC)c2)n1 [19am]	0.011 ± 0.0008	0.0115 ± 0.0047	0.06 ± 0.0051	Exp relative binding affinity (ΔΔGbind) (human A1AR; Lig 2 relative to Lig 1 = 19a): 0,11 kcal/mol; Exp relative binding affinity (ΔΔGbind) (human A1AR; Lig 2 relative to Lig 1 = 19ab): -0.98 kcal/mol; Exp absolute binding affinity (ΔGbind) (human A1AR): -10.85 kcal/mol
CNc1nc(-c2ccccc2)c(C#N)c(-c2ccncc2)n1 [19bb]	0.0569 ± 0.0067	–	–	Exp relative binding affinity (ΔΔGbind) (human A1AR; Lig 2 relative to Lig 1 = 19a): 1.08 kcal/mol; Exp absolute binding affinity (ΔGbind) (human A1AR): -9.88 kcal/mol
N#Cc1c(-c2ccccc2)nc(Nc2ccccc2)nc1-c1ccco1 [19au]	0.0337 ± 0.0073	0.00215 ± 0.00011	0.0147 ± 0.0049	–

Compound	Ki (human A1AR; [1]) [µM]	Ki (human A2AAR; [2]) [µM]	Ki (human A2BAR) [µM]	further results
N#Cc1c(-c2ccccc2)nc(N)nc1-c1ccsc1 [18aa]	0.00525 ± 0.00216	0.0206 ± 0.0027	–	–
N#Cc1c(-c2ccccc2)nc(N)nc1-c1cccnc1 [18ac]	0.0196 ± 0.00147	0.0364 ± 0.0057	–	–
N#Cc1c(-c2ccccc2)nc(N)nc1-c1ccc(F)cc1F [18o]	0.004 ± 0.00182	0.0155 ± 0.00221	–	–
COc1ccccc1-c1nc(N)nc(-c2ccccc2)c1C#N [18d]	0.0131 ± 0.0032	0.0177 ± 0.0021	–	–
N#Cc1c(-c2ccccc2)nc(Nc2ccccc2)nc1-c1cccnc1 [19bf]	–	0.0271 ± 0.0057	0.0294 ± 0.004	–
COc1cc(-c2nc(Nc3ccccc3)nc(-c3ccccc3)c2C#N)cc(OC)c1OC [19as]	0.0765 ± 0.0091	0.0158 ± 0.0037	–	–
N#Cc1c(-c2ccccc2)nc(N)nc1-c1ccc2ccccc2c1 [18af]	0.00827 ± 0.0021	0.00578 ± 0.00116	–	–
N#Cc1c(-c2ccccc2)nc(N)nc1-c1cc(Cl)cc(Cl)c1 [18s]	0.0159 ± 0.00211	0.0954 ± 0.0165	–	–
N#Cc1c(-c2ccccc2)nc(N)nc1-c1ccc(Br)cc1 [18k]	0.00919 ± 0.00281	0.0219 ± 0.005	–	–
N#Cc1c(-c2ccccc2)nc(N)nc1-c1cccc(F)c1 [18e]	0.0134 ± 0.0041	0.0195 ± 0.0033	0.186 ± 0.011	–
CNc1nc(-c2ccccc2)c(C#N)c(-c2cccc(F)c2)n1 [19j]	0.0285 ± 0.0027	–	0.358 ± 0.027	Exp relative binding affinity (ΔΔGbind) (human A1AR; Lig 2 relative to Lig 1 = 19a): 0.67 kcal/mol; Exp relative binding affinity (ΔΔGbind) (human A1AR; Lig 2 relative to Lig 1 = 19s): 1.34 kcal/mol; Exp relative binding affinity (ΔΔGbind) (human A1AR; Lig 2 relative to Lig 1 = 19v): 0.12 kcal/mol; Exp absolute binding affinity (ΔGbind) (human A1AR): -10.29 kcal/mol
CNc1nc(-c2ccccc2)c(C#N)c(-c2cccc(O)c2)n1 [19o]	0.00248 ± 0.00071	0.105 ± 0.008	–	–
CCNc1nc(-c2ccccc2)c(C#N)c(-c2cccc(Cl)c2)n1 [19m]	0.0051 ± 0.0018	0.295 ± 0.027	–	–
CNc1nc(-c2ccccc2)c(C#N)c(-c2ccoc2)n1 [19ax]	–	–	–	Exp absolute binding affinity (ΔGbind) (human A1AR): -6.82 kcal/mol
COc1ccc(-c2nc(N)nc(-c3ccccc3)c2C#N)c(OC)c1 [18q]	0.00398 ± 0.00074	0.0102 ± 0.00183	–	–
N#Cc1c(-c2ccc(F)cc2)nc(N)nc1-c1ccco1 [18am]	0.00908 ± 0.00116	0.00572 ± 0.00026	0.0139 ± 0.0037	–
N#Cc1c(-c2ccccc2)nc(N)nc1-c1ccc(F)cc1 [18j]	0.00419 ± 0.00116	0.0163 ± 0.0029	–	–
CCNc1nc(-c2ccccc2)c(C#N)c(-c2ccccc2)n1 [19b]	0.00582 ± 0.00116	0.357 ± 0.021	–	–
N#Cc1c(-c2ccccc2)nc(Nc2ccccc2)nc1-c1ccsc1 [19ba]	–	0.102 ± 0.027	–	–
N#Cc1c(-c2ccccc2)nc(N)nc1-c1ccncc1 [18ab]	0.216 ± 0.023	0.676 ± 0.027	–	Ki (human A1AR; [3]): 0.216 µM; Ki (human A2AAR; [4]): 0.677 µM
COc1cc(OC)cc(-c2nc(N)nc(-c3ccccc3)c2C#N)c1 [18t]	0.00258 ± 0.00067	0.00173 ± 0.00033	0.0451 ± 0.0037	–

Compound	Ki (human A1AR; [1]) [µM]	Ki (human A2AAR; [2]) [µM]	Ki (human A2BAR) [µM]	further results
CNc1nc(-c2ccccc2)c(C#N)c(-c2cccc(OC)c2)n1 [19q]	0.0132 ± 0.0041	0.0826 ± 0.0049	–	–
N#Cc1cccc(-c2nc(Nc3ccccc3)nc(-c3ccccc3)c2C#N)c1 [19u]	0.0182 ± 0.0031	–	0.0164 ± 0.0022	–
N#Cc1c(-c2ccccc2)nc(Nc2ccccc2)nc1-c1cccs1 [19aw]	0.0423 ± 0.0046	0.33 ± 0.027	–	–
N#Cc1c(-c2ccccc2)nc(N)nc1-c1ccccc1 [18a]	–	0.0186 ± 0.0034	–	–
N#Cc1cccc(-c2nc(N)nc(-c3ccccc3)c2C#N)c1 [18i]	0.00649 ± 0.00114	0.0841 ± 0.0117	–	–
COc1cc(-c2nc(N)nc(-c3ccccc3)c2C#N)cc(OC)c1OC [18v]	0.00258 ± 5e-05	0.00095 ± 7e-05	–	–
N#Cc1c(-c2ccccc2)nc(Nc2ccccc2)nc1-c1ccccc1 [19c]	0.0456 ± 0.0067	0.0551 ± 0.0043	–	–
N#Cc1c(-c2cccc(Cl)c2)nc(N)nc1-c1cc(Cl)cc(Cl)c1 [18ai]	0.00781 ± 0.00143	0.19 ± 0.022	–	–
Cc1ccc(-c2nc(N)nc(-c3ccccc3)c2C#N)cc1 [18n]	0.00538 ± 0.00136	0.00893 ± 0.00012	–	–
N#Cc1c(-c2ccccc2)nc(N)nc1-c1ccccc1F [18b]	0.00644 ± 0.00125	0.0176 ± 0.0028	–	–
N#Cc1c(-c2ccccc2)nc(N)nc1-c1ccoc1 [18z]	0.0187 ± 0.0034	0.0521 ± 0.0051	–	–
Cc1ccc(-c2nc(Nc3ccccc3)nc(-c3ccccc3)c2C#N)cc1 [19ae]	0.0379 ± 0.0057	0.157 ± 0.016	–	Ki (human A2AAR; [4]): 0.158 µM
N#Cc1c(-c2ccccc2)nc(N)nc1-c1ccc(O)cc1 [18m]	0.00414 ± 0.00055	0.0265 ± 0.0016	–	–
N#Cc1c(-c2cccc(Cl)c2)nc(N)nc1-c1ccc2c(c1)OCO2 [18aj]	0.00561 ± 0.00074	0.101 ± 0.015	0.386 ± 0.015	Ki (human A2AAR; [4]): 0.102 µM
CNc1nc(-c2ccccc2)c(C#N)c(-c2cc(OC)c(OC)c(OC)c2)n1 [19ar]	0.0117 ± 0.0031	0.00363 ± 0.00088	–	–
N#Cc1c(-c2ccccc2)nc(N)nc1-c1ccc2c(c1)OCO2 [18u]	–	0.0102 ± 0.00109	0.0433 ± 0.0042	–
COc1cccc(-c2nc(Nc3ccccc3)nc(-c3ccccc3)c2C#N)c1 [19r]	0.0955 ± 0.0117	0.133 ± 0.011	–	–
N#Cc1c(-c2cccc(Cl)c2)nc(N)nc1-c1cccc(Cl)c1 [18ah]	0.00482 ± 0.00037	0.0353 ± 0.0077	0.0736 ± 0.0068	–
N#Cc1c(-c2ccc(F)cc2)nc(N)nc1-c1ccc2c(c1)OCO2 [18ak]	0.0125 ± 0.0023	0.061 ± 0.0049	–	–
COc1ccc(-c2nc(N)nc(-c3ccc(OC)cc3)c2C#N)cc1 [18al]	0.0743 ± 0.0034	–	–	–
